Read-outs that look alike come from different tables or passages of the source.
Experiments:
SF-295 [1] = tested on: SF-295
A549/ATCC [2] = tested on: A549/ATCC
SF-268 [3] = tested on: SF-268
DU-145 = format: cell-based, human
UO-31 = assay: cells; conditions: Homo sapiens
ACHN = assay: cells; conditions: Homo sapiens
HCT-15 = assay: cells; conditions: Homo sapiens
SN12C = assay: cells; conditions: Homo sapiens
SK-MEL-2 = assay: cells; conditions: Homo sapiens
A549/ATCC [4] = assay: cells; conditions: Homo sapiens, A549, read-out: LC50
[5] = tested on: panel of 60 human cancer cell lines; conditions: 48 hour exposure
BT-549 = assay: cells; conditions: Homo sapiens
[6] = NCI in-vitro cytotoxicity screen, Breast Cancer panel; format: cell-based, human; conditions: Homo sapiens, read-out: LC50
Experimental: (§2) The compounds of this invention were also tested against the panel of 60 human cancer cell lines at the National Cancer Institute, Bethesda, Md. […] The cytotoxicity studies were conducted using a 48 hour exposure, and measuring the optical density of sulforhodamine B-derived color.

T-470 = assay: as above; format: cell-based, human; conditions: T-470
Experimental: as §2

L1210 leukemia cells = assay: cells; format: cell-based, murine; conditions: Mus musculus; L1210, 72 hr incubation
Experimental: (§1) The P815 and L1210 cell lines were obtained from American Type Tissue Culture Collection (ATCC). The cell lines were grown in Delbecco's Modified Eagle Medium (DMEM, Atlanta Biologicals) supplemented with 10% fetal bovine serum, Hepes Buffer (2 mM, Mediatech Cellgro, 25-060-Cl), L-Glutamine (2 mM, Mediatech Cellgro), and penicillin/streptomycin (50,000 units penicillin, […] streptomycin, Atlanta Biologicals). Cells were maintained at 37° C. in a 5% humidified CO2 atmosphere. […] This cell suspension (100 μL) was added to 96 well flat-bottom cell culture plates. At this concentration, 80,000 cells were seeded in each well. Drug solutions (dissolved in DMSO and diluted in DMEM) were added to each well (5 μL/well) resulting in final concentrations ranging from […] to 1×10^−12 M. Quadruplicate wells were prepared for each drug concentration. The plates were incubated for 72 hr at 37° C. in a 5% CO2 atmosphere. MTT (3-(4,5-dimethylthiazol-2-yl)-2,5-diphenyl tetrazolium bromide) was dissolved in PBS (5 mg/ml). After the indicated cell incubation period, 10 μL of this stock MTT solution was added to each well and the plates were further incubated for 4 h at 37° C. in a 5% CO2 atmosphere. […] The contents of the well were mixed thoroughly by pipetting the cell suspension up and down and the plates were allowed to sit at room temperature for 15 min in order to allow for full development of the purple color. The plates were read on a Dynatech Plate Reader, utilizing Dynex Revelation 3.2 software, with a test wavelenth of 570 nm and a reference wavelength of […].

P815 mastocytoma cells = assay: cells; format: cell-based, murine; conditions: Mus musculus; P815, 72 hr incubation
Experimental: as §1

SF-295 [7] = assay: cells; conditions: Homo sapiens
SF-268 [8] = assay: cells; conditions: Homo sapiens
U251 = assay: cells; conditions: Homo sapiens
LOX IMVI = assay: cells; conditions: Homo sapiens

**Q.** For “4-(2-Chloroethyl)-3-[5-(5-benzofuran-2-carboxamido)indole-2-carboxamido]phenol [Compound 1]”, which GI50 (MCF7) is on record?
**A.** 1.03 µM

**Q.** And the TGI (MCF7)?
**A.** 2.27E-06 Molar

**Q.** What about the GI50 (SNB-75) of the same compound?
**A.** 18.6 µM

**Q.** What about the TGI (SNB-75) of the same compound?
**A.** 3.32E-05 Molar

**Q.** And the GI50 (OVCAR-3)?
**A.** 2.13 µM

**Q.** What about the TGI (OVCAR-3) of the same compound?
**A.** 4.69E-06 Molar

**Q.** What about the GI50 (SK-MEL-28) of the same compound?
**A.** 2.4 µM

**Q.** What about the TGI (SK-MEL-28) of the same compound?
**A.** 6.10E-06 Molar

**Q.** And the GI50 (SF-295 [1])?
**A.** 2.32 µM

**Q.** And the TGI (SF-295 [1])?
**A.** 6.46E-06 Molar

**Q.** What about the GI50 (KM12) of the same compound?
**A.** 18.8 µM

**Q.** What about the TGI (KM12) of the same compound?
**A.** 3.50E-05 Molar

**Q.** What about the GI50 (EKVX) of the same compound?
**A.** 1.78 µM

**Q.** And the TGI (EKVX)?
**A.** 4.41E-06 Molar

**Q.** What about the GI50 (A549/ATCC [2]) of the same compound?
**A.** 1.98 µM

**Q.** And the TGI (A549/ATCC [2])?
**A.** 6.58E-06 Molar

**Q.** What about the GI50 (CAKI-1) of the same compound?
**A.** 2.3 µM

**Q.** And the TGI (CAKI-1)?
**A.** 7.19E-06 Molar

**Q.** And the GI50 (RPMI-8226)?
**A.** 1.86 µM

**Q.** What about the TGI (RPMI-8226) of the same compound?
**A.** 5.59E-06 Molar

**Q.** What about the GI50 (SW-620) of the same compound?
**A.** 2.01 µM

**Q.** And the TGI (SW-620)?
**A.** 8.19E-06 Molar

**Q.** And the GI50 (SF-268 [3])?
**A.** 13.4 µM

**Q.** What about the TGI (SF-268 [3]) of the same compound?
**A.** 2.78e-05 Molar

**Q.** And the GI50 (SK-OV-3)?
**A.** 2.93 µM

**Q.** And the TGI (SK-OV-3)?
**A.** 7.66E-06 Molar

**Q.** What about the GI50 (DU-145) of the same compound?
**A.** 1.12 µM

**Q.** What about the TGI (DU-145) of the same compound?
**A.** 6.16E-06 Molar

**Q.** And the GI50 (HS 578T)?
**A.** 11.8 µM

**Q.** And the TGI (HS 578T)?
**A.** 3.96E-06 Molar

**Q.** Which results are given for `COC(=O)c1[nH]c2c(O)cc(NC(=O)c3cc4cc(OC)c(OC)c(OC)c4[nH]3)c(CCCl)c2c1C(=O)OC` [Compound 22, Dimethyl 4-(2-chloroethyl)-7-hydroxy-5-(5,6,7-trimethoxyindole-2-carboxamido)indole-2,3-dicarboxylate]?
**A.** GI50 (UO-31; UO-31): 0.0988 µM; CC50 (UO-31; UO-31, read-out: LC50): > 50 µM; GI50 (ACHN): 0.0446 µM; CC50 (ACHN; read-out: LC50): > 50 µM; GI50 (HCT-15; HCT-15): 0.259 µM; CC50 (HCT-15; HCT-15, read-out: LC50): > 50 µM; GI50 (SN12C): 0.179 µM; CC50 (SN12C; read-out: LC50): > 50 µM; GI50 (SK-MEL-2; SK-MEL-2): 0.0839 µM; CC50 (SK-MEL-2; SK-MEL-2, read-out: LC50): 0.339 µM; CC50 (A549/ATCC [4]): < 50 µM; cytotoxic activity in the NCI screen [5]: activity in the micromolar range; GI50 (BT-549; BT-549): 0.329 µM; CC50 (BT-549; BT-549, read-out: LC50): > 50 µM; CC50 [6]: > 50 µM; GI50 (T-470; Homo sapiens): 0.171 µM; Percent Growth (T-470; Log10 Concentration −4.3): 14%; IC50 (L1210 leukemia cells): 4.2 µM; IC50 (P815 mastocytoma cells): 5.4 µM; GI50 (SF-295 [7]; SF-295): 0.126 µM; CC50 (SF-295 [7]; SF-295, read-out: LC50): > 50 µM; GI50 (SF-268 [8]; SF-268): 0.0138 µM; CC50 (SF-268 [8]; SF-268, read-out: LC50): 1.17 µM; GI50 (U251; U-251): 0.12 µM; CC50 (U251; U-251, read-out: LC50): > 50 µM; GI50 (LOX IMVI): 0.0817 µM; CC50 (LOX IMVI; read-out: LC50): 25.6 µM

Reference: patent publication US20030073731A1, “Compositions and methods of the use thereof achiral analogues of CC-1065 and the duocarmycins” (priority 2000, published 2003)
